# Assay results: PMC6271632, “Tryptophan as a Probe to Study the Anticancer Mechanism of Action and Specificity of α-Helical Anticancer Peptides” (Molecules, 2014)
# Columns and labels:
# [1] = RP-HPLC retention time (relative hydrophobicity); type: physicochemical; settings: measure of relative hydrophobicity, Zorbax 300 SB-C8 150 × 4.6 mm, linear AB gradient 1% acetonitrile/min, 0.1% TFA, 1 mL/min
# Protocol: The relative hydrophobicity of the peptides was determined by measuring their RP-HPLC retention times at 25 °C. The retention times of peptides are highly sensitive to the helicity of peptides upon the interaction between the peptide with the hydrophobic environment of the column matrix. From Table 2, the relative hydrophobicity of peptide analogs is in the order PCW < PMW < PNW. […] It is well known that the chromatography conditions characteristic of RP-HPLC (hydrophobic stationary phase, non-polar eluting solvent) induce helical structures in potentially helical peptides in a manner similar to that of the helix-inducing solvent trifloroethanol (TFE).
# Peptide samples were analyzed on a Shimadzu LC-20A HPLC column. Runs were performed on a Zorbax 300 SB-C8 column (150 × 4.6 mm ID, 5 μm particle size, 300Å pore size) from Agilent Technologies, using a linear AB gradient (1% acetonitrile/min) and a flow rate of 1 mL/min, in which eluent A was 0.1% aqueous TFA in water and eluent B was 0.1% TFA in acetonitrile. Temperature profiling analyses during RP-HPLC were performed in 5 °C increments, from 5 °C to 80 °C, as described previously.
# [2] = RP-HPLC temperature profiling (peptide self-association); type: physicochemical; settings: RP-HPLC temperature profiling 5 to 80 °C in 5 °C increments; maximal retention time difference normalised to control peptide C; Zorbax 300 SB-C8
# Protocol: Figure 2 Peptide self-association ability during RP-HPLC temperature profiling. The retention behavior of the peptides was normalized to that of the random coil peptide C through the expression (tR^t − tR^5 for peptide analogs) minus (tR^t − tR^5 for control peptide C), where tR^t is the retention time at a specific temperature of the anticancer peptides or the random coil peptide, and tR^5 is the retention time at 5 °C.
# We utilized the RP-HPLC temperature profiling technique to determine the peptide self-association ability in aqueous solution which we believe is a very important parameter to understand anticancer activity. When the self-association ability of a peptide is too strong in aqueous solution, it could decrease the ability of the peptide to dissociate and penetrate into membranes to kill target cells. […] The curves were normalized with the control peptide C which is a monomeric random coil peptide in both aqueous and hydrophobic media, showing only the general temperature effects. The peptide self-association parameter (PA) is the maximum change in peptide retention time relative to the control peptide C, to quantify the self-association ability of peptides in solution. The details of how to determine peptide self-association parameter were reported previously. […]
# Peptide samples were analyzed on a Shimadzu LC-20A HPLC column. […]
# [3] = Circular dichroism spectroscopy (helicity); type: physicochemical; settings: for [θ]222 Benign / [θ]222 SDS in Buffer / [θ]222 50%TFE: CD, 222 nm, 75 μM peptide; for [θ]222 Benign / [θ]222 SDS in Buffer / [θ]222 50%TFE / % Helix SDS in Buffer / % Helix 50%TFE: 25 °C; for [θ]222 Benign: KP buffer (100 mM KCl, 50 mM KH2PO4/K2HPO4, pH 7.4); for [θ]222 SDS in Buffer / % Helix SDS in Buffer: KP buffer with 10 mM SDS; for [θ]222 50%TFE / % Helix 50%TFE: KP buffer with 50% TFE; for % Helix Benign / % Helix SDS in Buffer / % Helix 50%TFE: relative to molar ellipticity of PMW in 50% TFE; for % Helix Benign: KP buffer pH 7.4, 25 °C
# Protocol: Peptide secondary structure was measured by CD spectroscopy on a Jasco-810 spectropolarimeter under mild buffer conditions (50 mM KH2PO4/K2HPO4, and 100 mM KCl, pH 7), in 50% TFE and under mild buffer conditions with 10 mM SDS to mimic the hydrophobic environment of the cell membrane (Figure 1 and Table 2). All peptide analogs show negligible helical structures with molar ellipticity values ranging from −5900 to −7800 under mild conditions. In contrast, all peptide analogs were induced into highly helical structures with molar ellipticity values ranging from −24,300 to −31,700 in the hydrophobic environment of 50% TFE and molar ellipticity values ranging from −17,800 to −27,300 in the hydrophobic buffer environment in the presence of 10 mM SDS. […] It is obvious that the tryptophan residue played an important role in stabilizing the helical structure at the N-terminus or in the middle position of the peptide sequence.
# Circular dichroism (CD) spectra were acquired with a 0.02 cm path length quartz cuvette on a Jasco J-810 spectropolarimeter (Jasco, Easton, MD, USA) at 25 °C as described previously. The concentration of 75 μM peptides was measured in benign buffer (50 mM KH2PO4/K2HPO4, and 100 mM KCl (pH 7.4)), benign buffer with 50% TFE and benign buffer with 10 mM SDS at 25 °C. The mean residue molar ellipticities were calculated by the equation [θ] = θ/10lCMn and θ is the ellipticity in millidegrees, l is the optical path length of the cuvette in centimeters, CM is the peptide concentration in mole/liter, and n is the number of residues in the peptide. The values of mean residue molar ellipticities of the peptide analogs at 222 nm were used to determine the relative helicity of the peptides.
# HeLa cells = type: cell-based, Human; settings: 1 h
# Protocol: The MTT assay has been used to test cytotoxicity of reagents and cell viability. Human cervix carcinoma cells (HeLa cells) were seeded in 96-well plates and incubated with serially 2-fold diluted concentration of different peptides (μM) for 1 h at 37 °C. As a negative control, cells were cultured without addition of the peptides. Thereafter, 20 μL of 5 mg/mL MTT solution in PBS were added to cells and treated for 4 h at 37 °C. The formazan crystals were dissolved by adding 150 μL dimethyl sulfoxide (DMSO) just before spectrometric determination. The absorbance was determined at 490 nm. The results were expressed as IC50, representing the concentration at which cell ability was reduced by 50%. The cytotoxicity assays were repeated in triplicates.
# human red blood cells = type: cell-based; settings: red cells of human, 1 h
# Protocol: Peptide samples were serially diluted by PBS in 96-well plates (round bottom) to give a volume of 70 μL sample solution in each well. Human erythrocytes anticoagulated by EDTAK2 were collected by centrifugation (1000 rpm) for 5 min, and washed twice by PBS, then diluted to a concentration of 2% in PBS. 70 μL of 2% erythrocytes were added to each well to give a final concentration of 1% human erythrocytes in each well and plates were incubated at 37 °C for 1 h. The plates were then centrifuged for 10 min at 3,000 rpm and supernatant (90 μL) was transferred to a 96-well plate (flat bottom). The release of hemoglobin was determined by measuring the absorbance of the supernatant at 540 nm. The hemolytic activity was determined as the minimal peptide concentration that caused hemolysis (minimal hemolytic concentration, MHC). Erythrocytes in PBS and distilled water were used as control of 0% and 100% hemolysis, respectively.
# [4] = Isothermal titration calorimetry with DMPC LUVs; type: binding; settings: ITC, 25 °C
# Protocol: The interaction of the peptides PNW and PCW with phospholipids was investigated using ITC at 25 °C, in which DMPC or DMPS LUVs were injected into an ITC cell containing peptide solutions of PNW or PCW. Based on the tryptophan fluorescence and quenching experiments, PNW and PCW could cover the trend of peptide-membrane interaction, thus, PMW was not included in the liposome experiments. The interaction of peptides with phospholipid bilayer membrane is entropy-driven. […] It is clear to see that the endothermic heat flow decreased with the increase of the number of injections and the free peptide concentration in the cell decreased simultaneously. The endothermic binding reaction of peptide PNW ceased after 20 injections, when all of peptide in bulk bound to DMPC LUVs (Figure 4A) and the further addition of DMPC LUVs caused dilution heat. However, the endothermic binding reaction of PCW ceased after 22 injections.
# To mimic cancer cell and normal cell membranes, desired phospholipid powders were mixtured under certain ratios. Phospholipid mixtures were dissolved in chloroform, dried by N2 flow, and then vacuumed overnight to remove the trace of organic solvents. […] The phospholipid concentrations were determined by phosphorus analysis. […]
# [5] = Isothermal titration calorimetry with DMPS LUVs; type: binding; settings: ITC, 25 °C, 10 mM HEPES, 150 mM NaCl pH 7.0
# Protocol: To mimic cancer cell and normal cell membranes, desired phospholipid powders were mixtured under certain ratios. Phospholipid mixtures were dissolved in chloroform, dried by N2 flow, and then vacuumed overnight to remove the trace of organic solvents. The lipids were hydrated in 10 mM HEPES and 150 mM NaCl buffer (pH 7.4) and extensively vortexed above the phase-transition temperature of phospholipid, obtaining multilamellar large vesicles (MLVs). To obtain large unilamellar vesicles (LUVs), the MLVs was exposed to five freeze-thaw cycles and pass 21 times through two polycarbonate membrane (0.1 μm) with a mini-extruder above the phase-transition temperature of phospholipids. The phospholipid concentrations were determined by phosphorus analysis.
# The affinity of peptides with LUV liposomes were detected by a Nano ITC2G isothermal titration calorimeter (TA Instrument Corp., New Castle, DE, USA) at 25 °C, under HEPES buffer condition (10 mM HEPES, and 150 mM NaCl (pH 7.0)). To avoid air bubbles, peptides and LUV solutions were degassed under vacuum 500 mmHg, for 14 min before using. […]
tR (retention time at 25 °C by RP-HPLC) [1],PA (association parameter) [2],[θ]222 Benign [3],[θ]222 SDS in Buffer [3],[θ]222 50%TFE [3],% Helix Benign [3],% Helix SDS in Buffer [3],% Helix 50%TFE [3],IC50 (HeLa cells),Compound,MHC (minimal hemolytic concentration) (human red blood cells),affinity constant Ka to DMPC LUVs [4],"Ka (affinity constant) ([4]; 10 mM HEPES, 150 mM NaCl pH 7.0)",Ka (affinity constant) [5]
45.6 min,4.5 min,−5900 degree cm^2 dmol^−1,"−17,800 degree cm^2 dmol^−1",−24300 degree.cm^2.dmol^−1,18%,56%,76%,2330 ± 120 nM,CC[C@H](C)[C@H](NC(=O)[C@H](CCCCN)NC(C)=O)C(=O)N[C@@H](CCCCN)C(=O)N[C@@H](CO)C(=O)N[C@@H](Cc1ccccc1)C(=O)N[C@@H](CC(C)C)C(=O)N[C@@H](CCCCN)C(=O)N[C@H](C(=O)N[C@@H](Cc1ccccc1)C(=O)N[C@@H](CCCCN)C(=O)N[C@@H](CO)C(=O)N[C@@H](CC(C)C)C(=O)N[C@@H](CCCCN)C(=O)N[C@@H](CCCCN)C(=O)N[C@H](C(=O)N[C@H](C(=O)N[C@@H](CC(C)C)C(=O)N[C@@H](Cc1c[nH]cn1)C(=O)N[C@H](C(=O)N[C@@H](CC(C)C)C(=O)N[C@@H](CC(C)C)C(=O)N[C@@H](CCCCN)C(=O)N[C@@H](C)C(=O)N[C@@H](Cc1c[nH]c2ccccc12)C(=O)N[C@@H](CO)C(=O)N[C@@H](CO)C(N)=O)[C@@H](C)O)C(C)C)[C@@H](C)O)[C@@H](C)O [PCW],10.41 ± 0.01 µM,4150 M⁻¹,4.15 [M]^−1× 10^3,17.70 [M]^−1× 10^3
46.5 min,5.3 min,−7400 degree cm^2 dmol^−1,"−25,050 degree cm^2 dmol^−1",−31900 degree.cm^2.dmol^−1,23%,79%,100%,2470 ± 180 nM,CC[C@H](C)[C@H](NC(=O)[C@H](C)NC(=O)[C@H](CCCCN)NC(=O)[C@H](CC(C)C)NC(=O)[C@H](CC(C)C)NC(=O)[C@@H](NC(=O)[C@H](Cc1c[nH]cn1)NC(=O)[C@H](CC(C)C)NC(=O)[C@@H](NC(=O)[C@@H](NC(=O)[C@H](CCCCN)NC(=O)[C@H](CCCCN)NC(=O)[C@H](Cc1c[nH]c2ccccc12)NC(=O)[C@H](CO)NC(=O)[C@H](CCCCN)NC(=O)[C@H](Cc1ccccc1)NC(=O)[C@@H](NC(=O)[C@H](CCCCN)NC(=O)[C@H](CC(C)C)NC(=O)[C@H](Cc1ccccc1)NC(=O)[C@H](CO)NC(=O)[C@H](CCCCN)NC(=O)[C@@H](NC(=O)[C@H](CCCCN)NC(C)=O)[C@@H](C)CC)[C@@H](C)O)[C@@H](C)O)C(C)C)[C@@H](C)O)C(=O)N[C@@H](CO)C(=O)N[C@@H](CO)C(N)=O [PMW],10.41 ± 0.01 µM,,,
